Measured values reported in publication PMC12345723, “Valorization of Coffee Silverskin via Integrated Biorefinery for the Production of Bioactive Peptides and Xylooligosaccharides: Functional and Prebiotic Properties” (Foods, 2025).
Marks after values point to notes of the source that are not given here.

What was measured:
RAW 264.7 cells = details: RAW 264.7, 24 h, 0–200 µg/mL, SRB assay
Experimental: The cytotoxicity of synthetic bioactive peptides was evaluated using the sulforhodamine B (SRB) colorimetric assay, as described by Vichai and Kirtikara. Briefly, RAW 264.7 murine macrophage cells were seeded at a 2 × 10^4 cells/well density in 96-well plates and incubated for 24 h. The cells were then treated with various concentrations of peptides (0–200 μg/mL) for an additional 24 h. After treatment, the cells were fixed with cold trichloroacetic acid (TCA) and stained with 0.4% (w/v) SRB in 1% (v/v) acetic acid. Unbound dye was removed by washing, and protein-bound SRB was solubilized using […] Tris base solution. Absorbance was measured at 520 nm using a microplate reader, and cell viability was calculated as a percentage relative to untreated control cells. Non-cytotoxic concentrations of the peptides were subsequently used for further investigation of their anti-inflammatory effects on LPS-induced nitric oxide (NO) production in RAW 264.7 cells.

[1] = test system: Dipeptidyl Peptidase-IV (DPP-IV); details: peptide 5000 μM; Gly-Pro-p-nitroanilide, Tris-HCl pH 8.0, 37 °C, 60 min; absorbance 385 nm; mean ± SD, n = 3
Experimental: The DPP-IV inhibitory activity was determined using a modified method based on Lacroix and Li-Chan [22]. Briefly, the synthetic peptide was diluted in 100 mM Tris-HCl buffer (pH 8.0) to a final concentration of 5000 μM. The reaction mixture was prepared in a 1.5 mL microcentrifuge tube by combining 75 μL of Gly-Pro-p-nitroanilide (1.59 mM), 50 μL of Tris-HCl buffer (pH 8.0), and 25 μL of the peptide sample. The mixture was pre-incubated at 37 °C for 10 min. Following pre-incubation, 50 μL of DPP-IV enzyme solution (0.01 U/mL) was added, and the reaction was incubated at 37 °C for 60 min. The reaction was terminated by adding 300 μL of 99.8% ethanol. The absorbance of the reaction mixture was measured at 385 nm, and the DPP-IV inhibitory activity was calculated and expressed as a percentage of inhibition.
ACE inhibitory activity was assessed at a peptide concentration of 500 μM, while DPP-IV inhibitory activity and antioxidant activity (ABTS radical scavenging assay) were evaluated at a concentration of 5000 μM.

[2] = ABTS radical scavenging assay; details: for Antioxidant Activity: ABTS, peptide 500 μM (table footnote), 30 min, absorbance 734 nm, mean ± SD, n = 3
Experimental: Antioxidant activity analysis was performed in the dark. DPPH, ABTS radical scavenging activity, and the ferric-reducing antioxidant power (FRAP) assay were determined following the method described by Jirarat et al. (2024). Concisely, samples were diluted using distilled water to the desired concentration. For the DPPH assay, a 500 μL sample was mixed with 500 μL of ethanolic DPPH solution (80 mg/L) for 60 min before measuring the absorbance at 517 nm. The ABTS radical (ABTS+) solution was prepared by incubating the mixture of 2.45 mM potassium persulfate solution and 7 mM ABTS solution (1:1, v/v) for 12–16 h. The deionized water was used for diluting the ABTS^+ solution to 0.70 ± 0.02 at an absorbance of […]. After that, the ABTS assay was performed by incubating a 50 μL sample with 850 μL of prepared ABTS^+ solution for 30 min, and the radical scavenging activity was determined by measuring the absorbance at 734 nm. Furthermore, the FRAP assay was performed by preparing the FRAP reagent, which consisted of 300 mM acetate buffer (pH 3.6), 20 mM FeCl3·6H2O, and 10 mM TPTZ in 40 mM HCl, mixed in a 10:1:1 volume ratio. Then, 100 μL of the sample was mixed with 900 μL the FRAP reagent and incubated for 30 min. […] The antioxidant capacity in all assays was expressed as micromoles of Trolox equivalents per liter (μmol TE/L) based on a Trolox standard curve.

RAW 264.7 macrophages = details: cited from earlier work
Experimental: A peptide concentration of 200 µg/mL was selected based on preliminary cytotoxicity screening using RAW 264.7 macrophage cells, which confirmed that this dose was non-toxic under the experimental conditions.

Row | Substance | cytotoxicity (RAW 264.7 cells) | DPP-IV Inhibition [1] | Antioxidant Activity [2] | ABTS radical scavenging activity ([2]; peptide 5000 μM as printed in the text) | cytotoxic effects (RAW 264.7 macrophages)
1 | phenylalanine-tyrosine-aspartic acid-threonine-tyrosine-tyrosine [FYDTYY] | non-toxic | 18 ± 3 ^a % | – | – | –
2 | FLGY [phenylalanine-leucine-glycine-tyrosine] | non-toxic | 19 ± 1 ^a % | 48 ± 1 ^a % | 48% | –
3 | DYKKY [peptide derived from whey protein hydrolysates] | – | – | – | – | no cytotoxic effects
4 | FDYGKY [phenylalanine-aspartic acid-tyrosine-glycine-lysine-tyrosine] | non-toxic | 0% | 50 ± 1 ^a % | – | –
5 | GTWY [peptide derived from whey protein hydrolysates] | – | – | – | – | no cytotoxic effects
